Consider 23 molecules from patent publication US7129346B2, “Crown ether derivatives” (Molecular Probes, Inc., priority 2000, dated 2006).

Experiment [1] is described as follows: Indicator fluorescence response titration, dissociation constant for Zn2+. The note with it: Table 1, Formula (I) compounds; approximate values; read-out: Dissociation Constant (target ion) Kd (Zn^2+). In kind it is binding. Here is the method:
(§1) The fluorescence response of a selected compound of the invention as a function of ion concentration was determined by dissolving a sample of the pure compound in 3 mL of each of two solutions: solution 1 (“high”) consists of 200 mM NaCl (or other appropriate ion) and 10 mM MOPS buffer at pH 7.05; solution 2 (“zero”) consists of 10 mM MOPS buffer at pH 7.05 in deionized water. […]. A least-squares fit was used to arrive at the concentration where the selected indicator was maximally sensitive to changes in Na^+ concentration. This corresponded to the dissociation constant of that indicator for Na^+ and was expressed as a concentration.

Experiment [2] can be described thus: Indicator fluorescence response titration, dissociation constant for Na+. The format is binding. How it is done: as §1
(§2) This methodology was repeated for K+, Li+ and Tb+ to obtain emission spectra and to calculate the Kd values. See, Table 2 and FIG. 4
For visible wavelength probes such as Compound 22 (Example 17), Compound 27 (Example 22) and Compound 86 (Example 79) the indicator's fluorescence emission was typically scanned from 450–650 nm while the sample was excited at the absorption maximum wavelength. For UV-excitable ratiometric probes such as Compound 51 (Example 46), the excitation wavelengths of the dye in solution 2 were scanned from 260 to 450 nm while monitoring constant fluorescence emission at 510 nm (as in FIG. 1). […]

In the next experiment the test system is Jurkat cells. The experiment is described as follows: Calibration of sodium indicator fluorescence response in cells (flow cytometry). The settings on record: 2 μM gramicidin, extracellular Na+ 0-145 mM, excitation 488 nm; for Intracellular fluorescence response to increasing intracellular Na^+ concentration: Jurkat cells, 5 μM Compound 25 or 10 μM Compound 87. The format is cell-based. How it is done:
Jurkat cells were loaded with a 5 μM solution of either Compound 25 (Example 20), or commercially available SODIUM GREEN tetraacetate indicator (Molecular Probes, Inc., Eugene, Oreg.) and 10 μM for Compound 87 (Example 80) for 30 minutes at 37° C. The use of PLURONIC dispersing agent helped dissolve the selected indicator. Intracellular sodium concentrations were then established by varying the sodium concentration of the extracellular buffer in the presence of 2 μM gramicidin (a sodium-pore forming antibiotic). The extracellular buffer was set at 0 mM, 10 mM, 20 mM, 50 mM, 100 mM, and 145 mM, respectively. Intracellular fluorescence response of the selected indicators was measured using a FACSCAN flow cytometer and associated software, with fluorescence excitation at 488 nm.

Experiment [3] is described as follows: Indicator fluorescence response titration, dissociation constant for K+. The format is binding. How it is done: The fluorescence response of a selected compound of the invention as a function of ion concentration was determined by dissolving a sample of the pure compound in 3 mL of each of two solutions: solution 1 (“high”) consists of 200 mM NaCl (or other appropriate ion) and 10 mM MOPS buffer at pH 7.05; solution 2 (“zero”) consists of 10 mM MOPS buffer at pH 7.05 in deionized water. A series of curves are generated by cross dilution between the two solutions to arrive at intermediate concentrations of Na+, K+, Li+ and Tb+. The emission of a selected indicator in solution 2 was scanned and then was repeated to cover the entire range from zero to 200 mM Na^+. For example, the fluorescence emission of the chosen indicator was scanned while the sample was excited at that indicator's absorption maximum wavelength, and then 1/100 of the sample was removed and replaced with 1/100 of solution 1 to arrive at a Na^+ concentration of 2 mM. This dilution was repeated to cover the entire range from zero to […] Na^+ and the resulting emission intensities were plotted versus the ion concentrations. A least-squares fit was used to arrive at the concentration where the selected indicator was maximally sensitive to changes in Na^+ concentration. This corresponded to the dissociation constant of that indicator for Na^+ and was expressed as a concentration.
as §2
(§3) For visible wavelength probes such as Compound 22 (Example 17), Compound 27 (Example 22) and Compound 86 (Example 79) the indicator's fluorescence emission was typically scanned from 450–650 nm while the sample was excited at the absorption maximum wavelength. For UV-excitable ratiometric probes such as Compound 51 (Example 46), the excitation wavelengths of the dye in solution 2 were scanned from 260 to 450 nm while monitoring constant fluorescence emission at 510 nm (as in FIG. 1).

Experiment [4] can be described thus: Indicator fluorescence response titration, dissociation constant for Ca2+. The settings on record: Table 1, Formula (I) compounds, read-out: Dissociation Constant (target ion) Kd (Ca^2+). In kind it is binding. Here is the method:
as §1

Experiment [5] can be described thus: Indicator fluorescence response titration, dissociation constant for Li+. The format is binding. The note with it: Table 2, Formula (II) compounds, in solution. Here is the method: as §1, §2, §3
Experiment [6] is described as follows: Indicator fluorescence response titration, dissociation constant for Rb+. The format is binding. The settings on record: Table 2, Formula (II) compounds, in solution. How it is done:
as §1, §2, §3

Setting [7] is: Table 1, Formula (I) compounds, approximate values, read-out: Dissociation Constant (target ion) Kd (Na^+).
[8] abbreviates: Table 2, Formula (II) compounds, in solution.
The mark [9] stands for this setting: Table 2, Formula (II) compounds, in solution, 10 mM MOPS pH 7.05, read-out: Dissociation constant Kd (Na^+).

SMILES strings stand for the structures. Entries after “also recorded” stand apart in the source; their conditions may differ.

One may read the Kd as the free concentration of one partner at which half of the binding sites on the other are occupied at equilibrium, for simple one-to-one binding. In the case of `Cc1ccc2c(c1)OCCOc1cc(-c3c4ccc(=[N+](C)C)cc-4oc4cc(N(C)C)ccc34)ccc1N(CC(N)=O)CCOCCN2CC(N)=O`, in experiment [1], the Kd is roughly 0.65 mM.
For the molecule `COC(=O)CN1CCOCCN(CC(=O)OC)c2ccc(-c3c4cc(F)c(=O)cc-4oc4cc(O)c(F)cc34)cc2OCCOc2cc(C)ccc21`, the Kd in experiment [2] (setting [7]) was roughly 60 mM.
On the same count and under the same terms, the value for `COC(=O)CN1CCOCCN(CC(=O)OC)c2cc3oc(-c4ncc(C(=O)O)o4)cc3cc2OCCOc2cc(C)ccc21` was roughly 52 mM.
Take `COC(=O)OCOC(=O)CN1CCOCCN(CC(=O)OCOC(C)=O)c2ccc(C)cc2OCCOc2cc(C3=C4C=C(F)C(O)C=C4Oc4cc(OCOC(C)=O)c(F)cc43)ccc21` (centres unmarked) [Compound 25]: in the experiment on Jurkat cells (Jurkat cells loaded with 5 μM for 30 minutes at 37° C., FIG. 3), the “Intracellular fluorescence intensity compared with SODIUM GREEN indicator” value is recorded as “stronger fluorescence intensity than SODIUM GREEN sodium indicator; also recorded: substantially brighter intracellular fluorescence intensity than the SODIUM GREEN indicator”. Moreover, the “Intracellular fluorescence response to increasing intracellular Na^+ concentration” value in the experiment with Jurkat cells is “consistent increase in fluorescence intensity”.
Turning to `COC(=O)CN1CCOCCN(CC(=O)OC)c2cc(OCC(=O)[O-])c(-c3c4ccc(=[N+](C)C)cc-4oc4cc(N(C)C)ccc34)cc2OCCOc2cc(C)ccc21`, the Kd in experiment [2] (setting [7]) was roughly 92 mM.
Turning to `COC(=O)CN1CCOCCOCCOCCOc2cc(-c3c4cc(F)c(=O)cc-4oc4cc(OCOC(C)=O)c(F)cc34)ccc21` [Compound 87], the “Intracellular fluorescence response to increasing intracellular Na^+ concentration” value with Jurkat cells is “increased fluorescent signal with increasing concentrations of sodium ions”.
As for `COC(=O)CN1CCOCCOCCOCCOc2cc(-c3cc4ccc(C(=O)OC)cc4[nH]3)ccc21` [Compound 93], the “Response to complexation (R = F/F0), R (Na^+)” value (“Response … (Na^+)” below) in experiment [2] (setting [8]) is 25. The dissociation constant Kd in experiment [2] (setting [9]) was 89 mM. For the same molecule, the “Dissociation constant Kd (K^+)” value in experiment [3] (Table 2, Formula (II) compounds, in solution, 10 mM MOPS pH 7.05) was “Kd (K^+) = no sensitivity”.
Take `Cc1ccc2c(c1)OCCOc1cc(-c3c4ccc(=[N+](C)C)cc-4oc4cc(N(C)C)ccc34)c(OCC(=O)O)cc1N(CC(=O)O)CCOCCN2CC(=O)O`: the figures for the Kd in experiment [2] (setting [7]) and in experiment [1] were roughly 70 mM and roughly 0.0001 mM, respectively.
On to `Cc1ccc2c(c1)OCCOc1cc3cc(-c4ncc(C(=O)O)o4)oc3cc1N(CC(=O)O)CCOCCN2CC(=O)O`, for which, in experiment [4] (approximate value), the Kd was roughly 0.0004 mM.
Consider `CCCCCCCCCCCCCCCCCCNC(=O)COc1cc2c(cc1-c1c3ccc(=[N+](C)C)cc-3oc3cc(N(C)C)ccc13)OCCOc1cc(C)ccc1N(CC(=O)OC)CCOCCN2CC(=O)OC`, for which the Kd in experiment [2] (setting [7]) is roughly 14 mM.
In the case of `Cc1ccc2c(c1)OCCOc1cc(-c3c4cc(F)c(=O)cc-4oc4cc(O)c(F)cc34)ccc1N(CC(N)=O)CCOCCN2CC(N)=O`, in experiment [1], the Kd is roughly 0.6 mM.
Consider `Cc1ccc2c(c1)OCCOc1cc(C3=c4cc5c6c(c4Oc4c3cc3c7c4CCCN7CCC3)CCC[N+]=6CCC5)ccc1N(CC(=O)O)CCOCCN2CC(=O)[O-]`, for which the Kd in experiment [1] was roughly 0.008 mM; in experiment [4] (approximate values), roughly 0.007 mM.
Regarding `Cc1ccc2c(c1)OCCOc1cc(-c3c4ccc(=[N+](C)C)cc-4oc4cc(N(C)C)ccc34)ccc1N(CC(=O)O)CCOCCN2CC(=O)[O-]`, the equilibrium dissociation constant (Kd) in experiment [2] (setting [7]) was roughly 38 mM; in experiment [1], roughly 0.0003 mM; in experiment [4] (approximate values), roughly 0.004 mM.
As to `COC(=O)CN1CCOCCN(CC(=O)OC)c2cc(OCC(=O)NC(CC(=O)O)C(=O)[O-])c(-c3c4ccc(=[N+](C)C)cc-4oc4cc(N(C)C)ccc34)cc2OCCOc2cc(C)ccc21` (centres unmarked), in experiment [2] (setting [7]), the Kd is roughly 85 mM.
For `COC(=O)CN1CCOCCOCCOCCOc2cc(-c3c4cc(F)c(=O)cc-4oc4cc(O)c(F)cc34)ccc21` [Compound 86], the “Response … (Na^+)” value in experiment [2] (setting [8]) is recorded as 28.5. Moreover, the Kd in experiment [2] (setting [9]) turned out to be 82 mM. For the same molecule, the “Response to complexation (R = F/F0), R (Li^+)” value in experiment [5] amounted to 6.8. In experiment [6], the “Response to complexation (R = F/F0), R (Rb^+)” value stood at 2.7. In experiment [3] (setting [8]), the “Response to complexation (R = F/F0), R (K^+)” value amounted to 6.9.
With `Cc1ccc2c(c1)OCCOc1cc(-c3c4cc(F)c(=O)cc-4oc4cc(O)c(F)cc34)ccc1N(CC(=O)O)CCOCCN2CC(=O)O`, the figures for the Kd in experiment [2] (setting [7]), in experiment [1] and in experiment [4] (approximate values) were roughly 36 mM, roughly 0.0003 mM and roughly 0.005 mM, respectively.
For `COCCN1CCOCCOCCOCCOc2cc(-c3cc4ccc(C(=O)OC)cc4[nH]3)ccc21` [Compound 120], the “Response … (Na^+)” value in experiment [2] (setting [8]) is on record as 2. Moreover, the Kd in experiment [2] (setting [9]) stood at 89 mM.
With `COC(=O)CN1CCOCCN(CC(=O)OC)c2ccc(-c3c4ccc(=[N+](C)C)cc-4oc4cc(N(C)C)ccc34)cc2OCCOc2cc(C)ccc21`, in experiment [2] (setting [7]), the Kd was roughly 95 mM.
Regarding `COC(=O)CN1CCOCCN(CC(=O)OC)c2ccc(-c3cc4ccc(C(=O)OC)cc4[nH]3)cc2OCCOc2cc(C)ccc21`, the Kd in experiment [2] (setting [7]) is roughly 30 mM; in experiment [3] (Table 1, Formula (I) compounds, approximate value printed in nM, read-out: Dissociation Constant (target ion) Kd (K^+)), roughly 115 nM.
As for `COC(=O)CN1CCOCCN(CC(=O)OC)c2cc(OCC(=O)O)c(-c3cc4ccc(C(=O)OC)cc4[nH]3)cc2OCCOc2cc(C)ccc21`, the Kd in experiment [2] (setting [7]) is roughly 52 mM.
`COCCN1CCOCCOCCOCCOc2cc(-c3c4cc(F)c(=O)cc-4oc4cc(O)c(F)cc34)ccc21` [Compound 115]: the “Response … (Na^+)” value in experiment [2] (setting [8]) was found to be 5.9. The Kd in experiment [2] (setting [9]) was 78.8 mM. In experiment [3] (setting [8]), the “Response to complexation (R = F/F0), R (K^+)” value was found to be 2.8.
As to `O=C([O-])CN1CCOCCOCCOCCOc2cc(-c3c4cc(F)c(=O)cc-4oc4cc(O)c(F)cc34)ccc21.[K+]` [Compound 127], in experiment [2] (setting [8]), the “Response … (Na^+)” value came to 3.6. Further, the Kd in experiment [2] (setting [9]) worked out at 20 mM.
In the case of `COC(=O)c1ccc2cc(-c3ccc4c(c3)OCCOCCOCCOCCN4CCN(C)C)[nH]c2c1` [Compound 126], the “Response … (Na^+)” value in experiment [2] (setting [8]) is −1.2.
